Data published in patent US7851637B2, “Compounds and methods for inhibiting the interaction of BCL proteins with binding partners” (Infinity Pharmaceuticals, Inc., priority 2004, dated 2010).
pKi: −log10 of the molar value.

How the values were obtained:
Bcl-xL = Bcl-xL (Homo sapiens, UniProt Q07817); experiment: Bcl-xL binding affinity analysis (fluorescence polarization binding assay); parameters: scale not given here
Outline: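 In vitro fluorescence polarization binding assay measuring compound binding to human Bcl-xL.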

Bcl-2 = Bcl-2 (Homo sapiens, UniProt P10415); experiment: Bcl-2 binding affinity analysis (fluorescence polarization binding assay)
Outline: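 Binding to human Bcl-2 quantified in vitro by a fluorescence polarization assay.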

Sequence of Bcl-2 (P10415 whole entry): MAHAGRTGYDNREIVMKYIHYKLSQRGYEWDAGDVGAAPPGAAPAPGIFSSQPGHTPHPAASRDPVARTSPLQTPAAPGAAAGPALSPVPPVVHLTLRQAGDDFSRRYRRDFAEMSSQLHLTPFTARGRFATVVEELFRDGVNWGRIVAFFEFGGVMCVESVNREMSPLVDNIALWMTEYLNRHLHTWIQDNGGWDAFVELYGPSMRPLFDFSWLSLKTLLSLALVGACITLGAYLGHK
Sequence of Bcl-xL (Q07817 whole entry): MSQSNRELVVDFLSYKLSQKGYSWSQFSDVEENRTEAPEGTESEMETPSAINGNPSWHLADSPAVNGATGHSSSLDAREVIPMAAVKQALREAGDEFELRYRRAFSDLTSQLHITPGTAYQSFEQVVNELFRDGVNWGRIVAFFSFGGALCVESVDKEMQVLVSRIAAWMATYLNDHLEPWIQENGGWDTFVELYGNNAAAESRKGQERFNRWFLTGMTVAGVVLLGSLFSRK

Q: Which results are given for `C[C@@H]1[C@@H](NC(=O)[C@@H]2[C@H]([C@H](C)O)[C@H](CO)ON2Cc2cccc(CN(CCN(C)C)CCC(C)(C)C)c2)C[C@H]2C[C@@H]1C2(C)C` [Compound 203]?
A: Bcl-XL binding affinity Ki (Bcl-xL): ♯; pKi (Bcl-2): > 6.10

Q: How did the “Bcl-XL binding affinity Ki” value (Bcl-xL) turn out when `C[C@@H]1[C@@H](NC(=O)[C@@H]2[C@H]([C@H](C)O)[C@H](CO)ON2Cc2cccc(CN(CCCc3ccccc3)CCN(C)C)c2)C[C@H]2C[C@@H]1C2(C)C` [Compound 205] was run?
A: The value was “♯”.

Q: What about the pKi (Bcl-2) of the same compound?
A: The pKi was greater than 6.10.

Q: Which “Bcl-XL binding affinity Ki” value (Bcl-xL) does the source give for `CC(C)CCN(CCN(C)C)Cc1cccc(CN2O[C@@H](CO)[C@@H]([C@H](C)O)[C@H]2C(=O)N[C@H]2C[C@H]3C[C@@H]([C@@H]2C)C3(C)C)c1` [Compound 207] here?
A: Its value is “♯”.

Q: What about the pKi (Bcl-2) of the same compound?
A: The pKi was greater than 6.10.

Q: For `C[C@@H]1[C@@H](NC(=O)[C@@H]2[C@H]([C@H](C)O)[C@H](CO)ON2Cc2cccc(CN(CCc3ccccc3)CCN(C)C)c2)C[C@H]2C[C@@H]1C2(C)C` [Compound 209], which “Bcl-XL binding affinity Ki” value (Bcl-xL) is on record?
A: Its value is “♯”.

Q: What about the pKi (Bcl-2) of the same compound?
A: The pKi was greater than 6.10.

Q: For `C[C@@H]1[C@@H](NC(=O)[C@@H]2[C@H]([C@H](C)O)[C@H](CO)ON2Cc2cccc(CN(CCN(C)C)C3CCCCC3)c2)C[C@H]2C[C@@H]1C2(C)C` [Compound 211], which “Bcl-XL binding affinity Ki” value (Bcl-xL) is on record?
A: Its value is “♯”.

Q: And the pKi (Bcl-2)?
A: The pKi was greater than 6.10.

Q: Which results are given for `C[C@@H]1[C@@H](NC(=O)[C@@H]2[C@H]([C@H](C)O)[C@H](CO)ON2Cc2cccc(CN(CCN(C)C)CC(C)(C)C)c2)C[C@H]2C[C@@H]1C2(C)C` [Compound 213]?
A: Bcl-XL binding affinity Ki (Bcl-xL): ♯; pKi (Bcl-2): > 6.10

Q: How did the “Bcl-XL binding affinity Ki” value (Bcl-xL) turn out when `C[C@@H]1[C@@H](NC(=O)[C@@H]2[C@H]([C@H](C)O)[C@H](CO)ON2Cc2cccc(-c3cccc(C(=O)NCCN4CCCC4)c3)c2)C[C@H]2C[C@@H]1C2(C)C` [Compound 215] was run?
A: The value was “♯”.

Q: What about the pKi (Bcl-2) of the same compound?
A: Its pKi is greater than 6.10.

Q: For `C[C@@H]1[C@@H](NC(=O)[C@@H]2[C@H]([C@H](C)O)[C@H](CO)ON2Cc2cccc(-c3cccc(C(=O)NCCCN(C)C)c3)c2)C[C@H]2C[C@@H]1C2(C)C` [Compound 216], which “Bcl-XL binding affinity Ki” value (Bcl-xL) is on record?
A: Its value is “♯”.

Q: What about the pKi (Bcl-2) of the same compound?
A: The pKi was greater than 6.10.

Q: `CC(C)NC(=O)c1cccc(-c2cccc(CN3O[C@@H](CO)[C@@H]([C@H](C)O)[C@H]3C(=O)N[C@H]3C[C@H]4C[C@@H]([C@@H]3C)C4(C)C)c2)c1` [Compound 217] was tested. Which “Bcl-XL binding affinity Ki” value (Bcl-xL) did it give?
A: Its value is “♯”.

Q: And the pKi (Bcl-2)?
A: Its pKi is greater than 6.10.

Q: For `C[C@@H]1[C@@H](NC(=O)[C@@H]2[C@H]([C@H](C)O)[C@H](CO)ON2Cc2cccc(-c3cccc(C(=O)NCCO)c3)c2)C[C@H]2C[C@@H]1C2(C)C` [Compound 218], which “Bcl-XL binding affinity Ki” value (Bcl-xL) is on record?
A: The value was “♯”.

Q: What about the pKi (Bcl-2) of the same compound?
A: The pKi was greater than 6.10.

Q: With `C[C@@H]1[C@@H](NC(=O)[C@@H]2[C@H]([C@H](C)O)[C@H](CO)ON2Cc2cccc(-c3cccc(C(N)=O)c3)c2)C[C@H]2C[C@@H]1C2(C)C` [Compound 219] as the compound, how does the “Bcl-XL binding affinity Ki” value (Bcl-xL) read?
A: Its value is “♯”.

Q: What about the pKi (Bcl-2) of the same compound?
A: The pKi was greater than 6.10.

Q: For `CNC(=O)c1cccc(-c2cccc(CN3O[C@@H](CO)[C@@H]([C@H](C)O)[C@H]3C(=O)N[C@H]3C[C@H]4C[C@@H]([C@@H]3C)C4(C)C)c2)c1` [Compound 220], which “Bcl-XL binding affinity Ki” value (Bcl-xL) is on record?
A: The value was “♯”.

Q: What about the pKi (Bcl-2) of the same compound?
A: The pKi was greater than 6.10.

Q: `C[C@H](O)[C@@H]1[C@H](CO)ON(Cc2cccc(CN(CCN(C)C)Cc3ccccc3)c2)[C@@H]1C(=O)NC1C[C@H]2C[C@@H]([C@@H]1C)C2(C)C` (stereo partly drawn) [Compound 221] was tested. Which “Bcl-XL binding affinity Ki” value (Bcl-xL) did it give?
A: The value was “♯”.

Q: What about the pKi (Bcl-2) of the same compound?
A: Its pKi is greater than 6.10.

Q: How did the “Bcl-XL binding affinity Ki” value (Bcl-xL) turn out when `CC(C)CC(CN(C)C)NCc1cccc(CN2O[C@@H](CO)C([C@H](C)O)[C@H]2C(=O)NC2CC3CC([C@@H]2C)C3(C)C)c1` (stereo partly drawn) [Compound 223] was run?
A: Its value is “♯”.

Q: And the pKi (Bcl-2)?
A: The pKi was greater than 6.10.

Q: For `C[C@H](O)[C@@H]1[C@H](CO)ON(Cc2cccc(-c3ccc(C(=O)N[C@H]4CCN(C)C4)cc3)c2)[C@@H]1C(=O)NC1C[C@H]2C[C@@H]([C@@H]1C)C2(C)C` (stereo partly drawn) [Compound 231], which “Bcl-XL binding affinity Ki” value (Bcl-xL) is on record?
A: Its value is “♯”.

Q: And the pKi (Bcl-2)?
A: Its pKi is greater than 6.10.

Q: Which results are given for `C[C@@H]1[C@@H](NC(=O)[C@@H]2[C@H]([C@H](C)O)[C@H](CO)ON2Cc2cccc(N(CCN(C)C)Cc3ccccc3)c2)C[C@H]2C[C@@H]1C2(C)C` [Compound 235]?
A: Bcl-XL binding affinity Ki (Bcl-xL): ♯♯; pKi (Bcl-2): > 6.10

Q: For `C[C@@H]1[C@@H](NC(=O)[C@@H]2[C@H]([C@H](C)O)[C@H](COC(=O)NCCN3CCOCC3)ON2Cc2cccc(-c3ccc(C(=O)N(C)C)cc3)c2)C[C@H]2C[C@@H]1C2(C)C` [Compound 245], which “Bcl-XL binding affinity Ki” value (Bcl-xL) is on record?
A: The value was “♯”.

Q: What about the pKi (Bcl-2) of the same compound?
A: The pKi was greater than 6.10.

Q: What does the source list for `COc1ccc(C(O)C#Cc2cccc(CN3O[C@H](CO)[C@H]([C@@H](C)O)[C@@H]3C(=O)NCCCN(C)c3ccccc3)c2)c(C)c1` (stereo partly drawn) [Compound 247]?
A: Bcl-XL binding affinity Ki (Bcl-xL): ♯; pKi (Bcl-2): > 6.10

Q: For `C[C@@H](O)[C@H]1[C@@H](CO)ON(Cc2cccc(C#CC(O)c3ccc(-c4ccccn4)cc3)c2)[C@H]1C(=O)NCCCN(C)c1ccccc1` (stereo partly drawn) [Compound 252], which “Bcl-XL binding affinity Ki” value (Bcl-xL) is on record?
A: Its value is “♯”.

Q: And the pKi (Bcl-2)?
A: Its pKi is greater than 6.10.

Q: How did the “Bcl-XL binding affinity Ki” value (Bcl-xL) turn out when `C[C@H](O)[C@@H]1[C@H](CO)ON(Cc2cccc(N3CCN(C(=O)OCc4ccccc4)CC3)c2)[C@@H]1C(=O)NC1C[C@H]2C[C@@H]([C@@H]1C)C2(C)C` (stereo partly drawn) [Compound 253] was run?
A: The value was “♯”.

Q: What about the pKi (Bcl-2) of the same compound?
A: The pKi was greater than 6.10.

Q: Which “Bcl-XL binding affinity Ki” value (Bcl-xL) does the source give for `C[C@@H]1[C@@H](NC(=O)[C@@H]2[C@H]([C@H](C)O)[C@H](CO)ON2Cc2cccc(N3CCN(C(=O)NCc4ccccc4)CC3)c2)C[C@H]2C[C@@H]1C2(C)C` [Compound 260] here?
A: Its value is “♯”.

Q: And the pKi (Bcl-2)?
A: The pKi was greater than 6.10.

Q: `C[C@@H]1[C@@H](NC(=O)[C@@H]2[C@H]([C@H](C)O)[C@H](CO)ON2Cc2cccc(N3CCN(C(=S)NCc4ccccc4)CC3)c2)C[C@H]2C[C@@H]1C2(C)C` [Compound 263] was tested. Which “Bcl-XL binding affinity Ki” value (Bcl-xL) did it give?
A: The value was “♯”.

Q: And the pKi (Bcl-2)?
A: Its pKi is greater than 6.10.

Q: What does the source list for `C[C@@H]1[C@@H](NC(=O)[C@@H]2[C@H]([C@H](C)O)[C@H](CO)ON2Cc2cccc(N3CCN(C(=S)NCCN4CCOCC4)CC3)c2)C[C@H]2C[C@@H]1C2(C)C` [Compound 264]?
A: Bcl-XL binding affinity Ki (Bcl-xL): ♯; pKi (Bcl-2): > 6.10

Q: How did the “Bcl-XL binding affinity Ki” value (Bcl-xL) turn out when `C[C@@H]1[C@@H](NC(=O)[C@@H]2[C@H]([C@H](C)O)[C@H](CO)ON2Cc2cccc(N3CCN(C(=S)NCCc4ccccc4)CC3)c2)C[C@H]2C[C@@H]1C2(C)C` [Compound 266] was run?
A: The value was “♯”.

Q: What about the pKi (Bcl-2) of the same compound?
A: Its pKi is greater than 6.10.

Q: How did the “Bcl-XL binding affinity Ki” value (Bcl-xL) turn out when `COC(=N)c1ccc(-c2cccc(CN3O[C@@H](CO)[C@@H]([C@H](C)O)[C@H]3C(=O)NC3C[C@@H]4CC([C@@H]3C)C4(C)C)c2)cc1` (stereo partly drawn) [Compound 270] was run?
A: Its value is “♯”.

Q: What about the pKi (Bcl-2) of the same compound?
A: Its pKi is greater than 6.10.

Q: For `C[C@@H]1C(NC(=O)[C@@H]2[C@H]([C@H](C)O)[C@H](CO)ON2Cc2cccc(-c3ccc(NCCCN(C)C)cc3)c2)C[C@@H]2CC1C2(C)C` (stereo partly drawn) [Compound 272], which “Bcl-XL binding affinity Ki” value (Bcl-xL) is on record?
A: The value was “♯”.

Q: What about the pKi (Bcl-2) of the same compound?
A: Its pKi is greater than 6.10.

Q: Which results are given for `C[C@@H]1C(NC(=O)[C@@H]2[C@H]([C@H](C)O)[C@H](CO)ON2Cc2cccc(-c3ccc(NCCN(C)C)cc3)c2)C[C@@H]2CC1C2(C)C` (stereo partly drawn) [Compound 276]?
A: Bcl-XL binding affinity Ki (Bcl-xL): ♯; pKi (Bcl-2): > 6.10

Q: How did the “Bcl-XL binding affinity Ki” value (Bcl-xL) turn out when `C[C@H](O)[C@@H]1[C@H](CO)ON(Cc2cccc(-c3ccc(NCCN4CCOCC4)cc3)c2)[C@@H]1C(=O)NC1CC2C[C@@H]([C@@H]1C)C2(C)C` (stereo partly drawn) [Compound 278] was run?
A: The value was “♯”.

Q: What about the pKi (Bcl-2) of the same compound?
A: Its pKi is greater than 6.10.

Q: For `C[C@@H]1C(NC(=O)[C@@H]2[C@H]([C@H](C)O)[C@H](CO)ON2Cc2cccc(-c3ccc(NC(=O)N(C)CCCN(C)C)cc3)c2)C[C@@H]2CC1C2(C)C` (stereo partly drawn) [Compound 282], which “Bcl-XL binding affinity Ki” value (Bcl-xL) is on record?
A: The value was “♯♯”.

Q: And the pKi (Bcl-2)?
A: The pKi was greater than 6.10.

Q: Which “Bcl-XL binding affinity Ki” value (Bcl-xL) does the source give for `C[C@@H]1C(NC(=O)[C@@H]2[C@H]([C@H](C)O)[C@H](CO)ON2Cc2cccc(-c3ccc(NC(=O)N(C)C)cc3)c2)C[C@@H]2CC1C2(C)C` (stereo partly drawn) [Compound 283] here?
A: Its value is “♯♯”.

Q: What about the pKi (Bcl-2) of the same compound?
A: Its pKi is greater than 6.10.
